ChEMBL document CHEMBL5321222, “N(14)-substituted evodiamine derivatives as dual topoisomerase 1/tubulin-Inhibiting anti-gastrointestinal tumor agents” (Eur J Med Chem, 2023)
Calls of active or inactive are those of the source. The rule behind the calls is not given here.

Key:
SW480 = test: Antiproliferative activity against human SW480 cells assessed as reduction in cell viability incubated for 72 hrs by MTT assay; type: functional, cell-based; conditions: SW480, 72 h
LoVo = test: Antiproliferative activity against human LoVo cells assessed as reduction in cell viability incubated for 72 hrs by MTT assay; type: functional, cell-based
RKO [1] = test: Antiproliferative activity against human RKO cells assessed as reduction in cell viability incubated for 72 hrs by MTT assay; type: functional, cell-based
HGC-27 = test: Antiproliferative activity against human HGC-27 cells assessed as reduction in cell viability incubated for 72 hrs by MTT assay; type: functional, cell-based; conditions: HGC-27, 72 h
SGC-7901 = test: Antiproliferative activity against human SGC-7901 cells assessed as reduction in cell viability incubated for 72 hrs by MTT assay; type: functional, cell-based; conditions: SGC-7901, 72 h
MGC-803 [2] = test: Antiproliferative activity against human MGC-803 cells assessed as reduction in cell viability incubated for 72 hrs by MTT assay; type: functional, cell-based; conditions: MGC-803, 72 h
GES1 = test: Antiproliferative activity against human GES1 cells assessed as reduction in cell viability incubated for 72 hrs by MTT assay; type: functional, cell-based; conditions: GES1, 72 h
[3] = target: T1, DNA topoisomerase 1 (Homo sapiens) (UniProt P11387); test: Inhibition of topoisomerase 1 (unknown origin) at 200 uM using PBR322 DNA as substrate incubated for 30 mins by agarose gel electrophoresis
T1 sequence (whole entry): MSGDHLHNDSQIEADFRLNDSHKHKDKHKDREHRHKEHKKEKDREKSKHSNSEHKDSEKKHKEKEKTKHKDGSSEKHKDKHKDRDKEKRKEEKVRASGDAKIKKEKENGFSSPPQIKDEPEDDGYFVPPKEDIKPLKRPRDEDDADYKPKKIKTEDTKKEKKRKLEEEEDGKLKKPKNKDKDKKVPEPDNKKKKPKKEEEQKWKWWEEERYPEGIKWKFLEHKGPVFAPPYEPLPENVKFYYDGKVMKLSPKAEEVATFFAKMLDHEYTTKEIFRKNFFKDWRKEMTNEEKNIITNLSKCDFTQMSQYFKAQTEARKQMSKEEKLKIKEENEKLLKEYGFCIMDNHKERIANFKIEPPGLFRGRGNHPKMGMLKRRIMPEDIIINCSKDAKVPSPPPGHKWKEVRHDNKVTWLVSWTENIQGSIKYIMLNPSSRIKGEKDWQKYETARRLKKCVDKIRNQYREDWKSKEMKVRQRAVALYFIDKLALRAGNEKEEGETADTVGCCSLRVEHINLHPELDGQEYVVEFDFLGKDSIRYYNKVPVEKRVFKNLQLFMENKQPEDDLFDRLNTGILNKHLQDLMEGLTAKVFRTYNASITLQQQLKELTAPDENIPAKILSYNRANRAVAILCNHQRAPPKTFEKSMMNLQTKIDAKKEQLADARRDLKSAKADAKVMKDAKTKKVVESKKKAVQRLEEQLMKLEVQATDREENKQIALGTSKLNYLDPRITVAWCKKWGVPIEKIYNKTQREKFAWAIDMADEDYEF

MGC-803 [4] = test: Antiproliferative activity against human MGC-803 cells assessed as reduction in cell viability at 90 nM incubated for 24 hrs by BrdU staining based fluorescence microscopic analysis; type: functional
RKO [5] = test: Antiproliferative activity against human RKO cells assessed as reduction in cell viability at 90 nM incubated for 24 hrs by BrdU staining based fluorescence microscopic analysis; type: functional
MGC-803 [6] = test: Induction of apoptosis in human MGC-803 cells assessed as late apoptotic cells at 0.2 uM incubated for 24 hrs by propidium iodide and Annexin V/FITC staining based flow cytometry assay (reference value: 4.10%); type: functional
RKO [7] = test: Induction of cell cycle arrest in human RKO cells assessed as accumulation of cells at G2/M phase at 0.2 uM incubated for 24 hrs by propidium iodide staining based flow cytometry analysis; type: functional
MGC-803 [8] = test: Induction of apoptosis in human MGC-803 cells assessed as early apoptotic cells at 0.2 uM incubated for 24 hrs by propidium iodide and Annexin V/FITC staining based flow cytometry assay (reference value: 1.85%); type: functional
RKO [9] = test: Induction of apoptosis in human RKO cells assessed as early apoptotic cells at 0.2 uM incubated for 24 hrs by propidium iodide and Annexin V/FITC staining based flow cytometry assay (reference value: 0.16%); type: functional
RKO [10] = test: Induction of apoptosis in human RKO cells assessed as late apoptotic cells at 0.2 uM incubated for 24 hrs by propidium iodide and Annexin V/FITC staining based flow cytometry assay (reference value: 0.50%); type: functional
MGC-803 [11] = test: Induction of morphological changes in human MGC-803 cells at 0.2 uM incubated for 24 hrs by Giemsa staining based micrscopic analysis; type: functional, cell-based
RKO [12] = test: Induction of morphological changes in human RKO cells at 0.2 uM incubated for 24 hrs by Giemsa staining based micrscopic analysis; type: functional, cell-based

Structure (SMILES)	IC50 (SW480) [µM]	IC50 (LoVo) [µM]	IC50 (RKO [1]) [µM]	IC50 (HGC-27) [µM]	IC50 (SGC-7901) [µM]	IC50 (MGC-803 [2]) [µM]	IC50 (GES1) [µM]	inhibition [3]	Activity (MGC-803 [4])	Activity (RKO [5])	Activity (MGC-803 [6]) [%]	Activity (RKO [7]) [%]	Activity (MGC-803 [8]) [%]	Activity (RKO [9]) [%]	Activity (RKO [10]) [%]	Activity (MGC-803 [11])	Activity (RKO [12])
C#CCN1c2ccccc2C(=O)N2CCc3c([nH]c4ccccc34)C21 (stereo not drawn)	1.22	1.5	0.85	1.52	0.64	0.21	1.2	–	–	–	–	–	–	–	–	–	–
COc1ccc(CN2c3ccccc3C(=O)N3CCc4c([nH]c5ccccc45)C32)cc1 (stereo not drawn)	> 30	19.7	5.51	17.8	5.96	4.49	8.53	–	–	–	–	–	–	–	–	–	–
C=CCN1c2ccccc2C(=O)N2CCc3c([nH]c4ccccc34)C21 (stereo not drawn)	0.38	1	0.38	1.05	0.27	0.06	–	Active	–	–	–	–	–	–	–	–	–
COc1ccc(CCN2c3ccccc3C(=O)N3CCc4c([nH]c5ccccc45)C32)cc1OC (stereo not drawn)	> 30	> 30	> 30	> 30	> 30	> 30	> 30	–	–	–	–	–	–	–	–	–	–
CCCCN1c2ccccc2C(=O)N2CCc3c([nH]c4ccccc34)C21 (stereo not drawn)	1.03	1.99	0.45	1.7	0.46	0.16	0.5	–	–	–	–	–	–	–	–	–	–
O=C1c2ccccc2N(CC2CC2)C2c3[nH]c4ccccc4c3CCN12 (stereo not drawn)	1.84	0.44	0.42	1.85	0.22	0.1	0.21	Active	–	–	–	–	–	–	–	–	–
CCN1c2ccccc2C(=O)N2CCc3c([nH]c4ccccc34)C21 (stereo not drawn)	0.98	1.2	0.41	2.15	0.43	0.17	0.3	Active	–	–	–	–	–	–	–	–	–
CCCCCN1c2ccccc2C(=O)N2CCc3c([nH]c4ccccc34)C21 (stereo not drawn)	4.41	> 30	1.87	7.74	1.22	0.75	2.82	–	–	–	–	–	–	–	–	–	–
CC(C)(C)CN1c2ccccc2C(=O)N2CCc3c([nH]c4ccccc34)C21 (stereo not drawn)	1.84	1.95	1.31	> 3	1.21	0.91	1.68	–	–	–	–	–	–	–	–	–	–
COC(=O)CN1c2ccccc2C(=O)N2CCc3c([nH]c4ccccc34)C21 (stereo not drawn)	> 30	> 30	23.4	> 30	6.66	> 30	> 30	–	–	–	–	–	–	–	–	–	–
C[Si](C)(C)CN1c2ccccc2C(=O)N2CCc3c([nH]c4ccccc34)C21 (stereo not drawn)	3.28	7.06	2.21	> 3	2.47	1.78	4.24	–	–	–	–	–	–	–	–	–	–
CC(C)CN1c2ccccc2C(=O)N2CCc3c([nH]c4ccccc34)C21 (stereo not drawn)	2.2	0.5	0.88	1.95	0.35	0.16	1.08	Active	–	–	–	–	–	–	–	–	–
Cc1ccc(CN2c3ccccc3C(=O)N3CCc4c([nH]c5ccccc45)C32)cc1 (stereo not drawn)	> 30	> 30	12.5	> 30	6.11	7.06	9.74	–	–	–	–	–	–	–	–	–	–
COc1cc2c(c(OC)c1OC)-c1ccc(OC)c(=O)cc1[C@@H](NC(C)=O)CC2 [COLCHICINE]	–	0.23	–	–	17.3	7.99	–	–	Active	Active	7.63	82.29	6.95	5.3	5.1	Active	Active
O=C1c2ccccc2N(CCBr)C2c3[nH]c4ccccc4c3CCN12 (stereo not drawn)	0.97	1.34	0.98	2.05	1.06	0.55	1.34	–	–	–	–	–	–	–	–	–	–
C/C=C/C(=O)N1c2ccccc2C(=O)N2CCc3c([nH]c4ccccc34)C21 (stereo not drawn)	6.99	> 30	10.2	4.37	9.59	10.3	13.6	–	–	–	–	–	–	–	–	–	–
C=C(CN1c2ccccc2C(=O)N2CCc3c([nH]c4ccccc34)C21)C(=O)OC (stereo not drawn)	> 30	> 30	> 30	> 30	> 30	19.7	> 30	–	–	–	–	–	–	–	–	–	–
CC(C)N1c2ccccc2C(=O)N2CCc3c([nH]c4ccccc34)C21 (stereo not drawn)	1.17	0.54	0.49	2.27	0.38	0.13	0.9	–	–	–	–	–	–	–	–	–	–
O=C1c2ccccc2N(Cc2ccccc2)C2c3[nH]c4ccccc4c3CCN12 (stereo not drawn)	13.3	> 30	5.96	10.7	11.6	9.34	15.9	–	–	–	–	–	–	–	–	–	–
O=C1c2ccccc2N(CCC2OCCO2)C2c3[nH]c4ccccc4c3CCN12 (stereo not drawn)	> 30	> 30	> 30	> 30	5.63	15.7	> 30	–	–	–	–	–	–	–	–	–	–
